Legend:
[1] = Preliminary test: body weight, blood sugar and urinal sugar in light-irradiated age-related maculopathy mouse model; type: in vivo, BALB/c mice; settings: AMD mouse; for change in body weight as compared to when not administering ipragliflozin: light irradiation 8000 lux 10 hours, bred one week
Method: (§1) To BALB/c mice, light irradiation (8000 lux, 10 hours) was performed, and then the mice were bred for one week. The existing SGLT2 inhibitor agent ipragliflozin was orally administered in an amount of 0.03 mg/kg/day and 0.1 mg/kg/day for four days including the day of light irradiation. The effects on body weight and blood sugar were confirmed. These models are widely used as age-related maculopathy models.
FIGS. 1 and 2 show the results of body weight and blood sugar levels when administering the existing SGLT2 inhibitor agent ipragliflozin at 0.03 mg/kg/day and 0.1 mg/kg/day.

[2] = system: retina of an age-related maculopathy mouse model; test: Hematoxylin-Eosin staining of retina, thickness of outer granular layer, in age-related maculopathy mouse model; type: in vivo, BALB/c mice; settings: vs non-administered AMD mouse
Method: FIG. 4 is a graph showing the thickness of outer granular layer (including visual cells) of the retina of an age-related maculopathy mouse model in numeral terms. […] “***” represents P<0.005 vs control mouse, “#” and “##” each represents P<0.05 vs Ipragliflozin non-administered AMD mouse, and P<0.01 vs Ipragliflozin non-administered AMD mouse, respectively.
as §1

SGLT2 = molecular target: T1, SGLT2 (Homo sapiens, UniProt P31639); settings: cited from earlier work
T1 sequence (P31639 1-672): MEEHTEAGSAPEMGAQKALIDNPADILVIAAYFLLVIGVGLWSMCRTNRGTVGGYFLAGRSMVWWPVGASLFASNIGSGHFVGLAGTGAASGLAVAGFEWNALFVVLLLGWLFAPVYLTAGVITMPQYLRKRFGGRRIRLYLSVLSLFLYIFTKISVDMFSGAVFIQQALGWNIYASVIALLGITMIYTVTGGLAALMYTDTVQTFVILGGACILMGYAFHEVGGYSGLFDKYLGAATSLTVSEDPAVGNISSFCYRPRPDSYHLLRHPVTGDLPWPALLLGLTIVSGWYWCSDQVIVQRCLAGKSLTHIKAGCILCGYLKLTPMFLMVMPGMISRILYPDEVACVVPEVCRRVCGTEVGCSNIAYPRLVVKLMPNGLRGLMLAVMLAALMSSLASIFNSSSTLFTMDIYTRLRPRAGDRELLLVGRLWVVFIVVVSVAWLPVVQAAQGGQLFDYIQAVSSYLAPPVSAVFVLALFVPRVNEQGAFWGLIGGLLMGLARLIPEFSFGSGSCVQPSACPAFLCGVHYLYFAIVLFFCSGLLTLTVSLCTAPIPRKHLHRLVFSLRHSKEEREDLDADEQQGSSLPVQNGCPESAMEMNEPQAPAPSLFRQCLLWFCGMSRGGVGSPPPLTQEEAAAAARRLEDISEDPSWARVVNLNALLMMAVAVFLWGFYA

[3] = authorized minimum dosage amount; compared with canagliflozin; cited from earlier work
[4] = 0.03 mg/kg/day orally for four days
[5] = 0.1 mg/kg/day orally for four days

SMILES | IC50 level showing the inhibition activity, compared with canagliflozin (SGLT2) | maximum blood concentration (Cmax) in the minimum dosage amount, relative to that of canagliflozin [3] | further results
OC[C@H]1O[C@@H](c2ccc(F)c(Cc3cc4ccccc4s3)c2)[C@H](O)[C@@H](O)[C@@H]1O [ipragliflozin] | – | – | change in urinal sugar as compared to when not administering ipragliflozin ([1]; 0.03 mg/kg/day and 0.1 mg/kg/day orally for four days): no change was observed; change in blood sugar as compared to when not administering ipragliflozin [1, 4]: no change was observed; change in body weight as compared to when not administering ipragliflozin [1, 4]: no change was observed; change in blood sugar as compared to when not administering ipragliflozin [1, 5]: no change was observed; change in body weight as compared to when not administering ipragliflozin [1, 5]: no change was observed; thinning of membrane shown in retina of AMD mouse (thickness of outer granular layer) ([2]; 0.03 mg/kg/day orally): significantly ameliorated; thinning of membrane shown in retina of AMD mouse (thickness of outer granular layer) ([2]; 0.1 mg/kg/day orally): significantly ameliorated
CCOc1ccc(Cc2cc([C@@H]3S[C@H](CO)[C@@H](O)[C@H](O)[C@H]3O)c(OC)cc2C)cc1 [luseogliflozin hydrate] | similar | approximately 1/10 | –
O=C(O)[C@@H]1CCCN1.OC[C@H]1O[C@@H](c2ccc(F)c(Cc3cc4ccccc4s3)c2)[C@H](O)[C@@H](O)[C@@H]1O [ipragliflozin L-proline] | similar | similar | –
OC[C@H]1O[C@@H](c2ccc(Cl)c(Cc3ccc(O[C@H]4CCOC4)cc3)c2)[C@H](O)[C@@H](O)[C@@H]1O [empagliflozin] | similar | approximately 1/10 | –
CCc1ccc(Cc2ccc3c(c2)[C@]2(OC3)O[C@H](CO)[C@@H](O)[C@H](O)[C@H]2O)cc1 [tofogliflozin hydrates, tofogliflozin hydrate] | similar | approximately 1/10 | –
